We go through one compound from patent publication US12201634B2, “Methods of treating depression using orexin-2 receptor antagonists” (Janssen Pharmaceutica NV, priority 2016, dated 2025).

Holding throughout (type): in vivo, human
Assay [1] concerns subjects with a diagnosis of MDD. Kind of assay: HDRS17 / HAM-D6 depression ratings, diphenhydramine and placebo-controlled study (Example 2). As to conditions: Day 11. The source says:
(§1) Men and women with a diagnosis of MDD between the ages of 18 and 64, inclusive, were enrolled.
(§2) (once daily) in the evening over 10 days for women of child bearing potential (WOCBP) or 4 weeks for males and women of non-child bearing potential (WONCBP). […] Males and WONCBP took 1 capsule every evening just before bedtime from Day 1 to Day 28. WOCBP took 1 capsule every evening just before bedtime from Day 1 to Day 10. There were 2 follow up visits occurring at 3 and 14 days.
(§3) For the evaluation of symptoms of depression, assessments were done at screening and during the study. Specifically, symptoms of depression were performed using the Mini International Neuropsychiatric Interview (MINI) 6.0 interview, or Hamilton rating scale for Depression-17 (HDRS17). Also, polysomnography (PSG) was performed to quantify sleep stages including latency to persistent sleep (LSP) and total sleep time (TST). Thereafter, symptoms of depression were taking on days 11 and 29 during treatment and days 3 and 14 following treatment. PSG was recorded overnight after the first and tenth dose administration of study medication.
A HDRS17 total score was calculated by summing the 17 item scores taken during the study. A HDRS17 total score ranges from 0 to 52, with higher scores indicating greater severity of depression. In order to correct for a possible effect of study medication on sleep, sleep-related items were removed from the HDRS17 to calculate a (sleep item)-adjusted HDRS. Accordingly, an adjusted HDRS17 total score was calculated by summing the item scores excluding the 3 insomnia questions (4-Insomnia Early, 5-Insomnia Middle and 6-Insomnia Late). A HDRS17 adjusted total score ranges from 0 to 46. A 6-item subscale from the HDRS17 (HAM-D6) was analyzed and provided information to core depressive symptoms and is sensitive to treatment response. The six items included depressed mood, guilt feelings, work and interests, psychomotor retardation, psychic anxiety, and general somatics (tiredness and pains).
The HAM-D6 score was calculated by summing the 6 items scores, and ranges from 0 to 22. Higher scores indicate greater severity of core symptoms.

The test system is the same in assay [2]. Kind of assay: Polysomnography (TST, LPS) in MDD study (Example 2).
Source text: as §1, §2, §3
The effects of study medication on polysomnography (PSG)-derived parameters was evaluated overnight on Days 1/2 and 10/11. In addition, PSG was recorded up to and following a forced wake overnight on Day 5/6. Two screening PSG recordings were made and baseline values were calculated as the average values recorded at Screening 1 and 2.
TST is defined as total minutes spent in rapid eye movement (REM) and non-REM sleep.
LPS is defined as the elapsed time (in minutes) from lights out to 10 minutes of continuous sleep.

The test system of assay [3] is subjects diagnosed with MDD. Kind of assay: HDRS17 / HAM-D6 ratings, Group 1 monotherapy (Example 3). As to conditions: Group 1, Day 11. As for the experimental part: (§4) Specifically, Compound A was administered to subjects diagnosed with MDD (i) as a monotherapy and (ii) in combination with a known anti-depressant and the symptoms of depression of the subjects evaluated using the HDRS17 and HAM-D6 scale
(§5) Each subject in Group 2 also took an amount of antidepressant selected from duloxetine, citalopram, paroxetine, or sertraline and as prescribed by their attending physician. For the evaluation of symptoms of depression for both groups, assessments were independently performed at screening and on Day 11, i.e., one day after the study, using HDRS17 and HAM-D6 as described in Example 2. In Tables 11-12, # denotes the Cohen effect size, * denotes P<0.05 (statistically significant), and ** denotes P<0.01.

The subject of assay [4] is subjects diagnosed with MDD. Kind of assay: HDRS17 / HAM-D6 ratings, Group 2 adjunctive to antidepressant (Example 3). As to conditions: Group 2 (with antidepressant), Day 11. As for the experimental part: as §4, §5

For the compound `CN(C)CCOC(c1ccccc1)c1ccccc1` [Diphenhydramine, diphenhydramine, reference compound], in assay [1], the “Mean HAM-D6, change from baseline” value is −1.8 and the “mean HDRS17 anxiety/somatization factor score, change from baseline” value was −0.9. In addition, in assay [1] (q.d. in the evening), the “Mean Adjusted HDRS17 (sleep items removed), change from baseline” value is recorded as −2.3 and the “Total HDRS17 mean score, change from baseline” value is given as −4.1. Further, in assay [2] (Day 1/2), the “Latency to Persistent Sleep (LPS), change from baseline” value is given as 6.7 min and the “Total Sleep Time (TST), change from baseline” value turned out to be 28.3 min. In addition, in assay [2] (Day 10/11), the “Latency to Persistent Sleep (LPS), change from baseline” value amounted to 0.3 min and the “Total Sleep Time (TST), change from baseline” value is listed as 33.92 min. Further, in assay [2] (overnight on Day 1/2), the “LPS compared to placebo” value is reported as “modestly reduced LPS” and the “TST compared to placebo” value is listed as “increased TST”. Besides, in assay [3], the “Adjusted HDRS mean score (SD), change from baseline” value is listed as −2.1 (3.02); the “Anxiety-Somatization Factor mean score (SD), change from baseline” value is −0.8 (1.17); the “HAM-D6 mean score (SD), change from baseline” value was −1.7 (2.15); the “HDRS17 mean score (SD), change from baseline” value is −4.2 (4.00). Besides, in assay [4], the “Adjusted HDRS mean score (SD), change from baseline” value is reported as −3.5 (0.71); the “Anxiety-Somatization Factor mean score (SD), change from baseline” value is reported as −1.5 (0.71); the “HAM-D6 mean score (SD), change from baseline” value is −2.0 (1.41); the “HDRS17 mean score (SD), change from baseline” value was −3.5 (0.71).
